Results reported in US7973066B2, “Pyrrolo[1,2-A]imidazoledione effective in the treatment of peripheral neurotoxicity induced by chemotherapeutic agents” (Neurotune AG, priority 2006, dated 2011).
Where two headings read alike, the source gives them in different places.

How the values were obtained:
[1] = tested on: Taxol-induced peripheral neuropathy; assay: Taxol-induced peripheral neuropathy, paw pressure test; format: in vivo, rat; conditions: for anti-hyperalgesic activity, i.v.: 3 mg/kg i.v.; for anti-hyperalgesic activity, i.v. / anti-hyperalgesic activity, i.p.: 30-90 min from administration; for anti-hyperalgesic activity, i.p.: 30 mg/kg i.p.; for rat paw pressure threshold, anti-hyperalgesic effect: 100 mg/kg given orally, 30 and 60 min after treatment
Experimental: Taxol neuropathy was induced by i.p. administration (0.5 mg/kg) once a day, on days 1, 3, 5, 8. Cumulative taxol dose was 2 mg/kg. The pharmacological test was performed 14-18 days after the last taxol injection (Polomano R. C. et al. 2001, Pain 94:293-304).
(§1) When a chemotherapeutic injection was to be given on a same day as behavioural testing, rats were injected after the measurement was taken.
(§2) Paw mechanical iper-sensitivity was determined using a Randall & Selitto apparatus exerting a force that increases at constant rate (32 g/s) in agreement with Leighton G. E. et al. (1988, Br. J. Pharmacol 93:553-560). The stimulus at which rats withdraw the paw was evaluated before and at different times after drugs treatment. Results represent the mean of mechanical thresholds expressed as grams. To avoid any possible damage to the animal paw the maximum applied force was fixed at 240 g.

[2] = tested on: Oxaliplatin-induced peripheral neuropathy; assay: Oxaliplatin-induced peripheral neuropathy, paw pressure test; format: in vivo, rat; conditions: for prevention of oxaliplatin-induced decrease of mechanical threshold: 100 mg/kg p.o. once daily starting three days before oxaliplatin, tested every week 30 min after administration; for effects on vehicle treated animals (paw pressure): vehicle treated rats
Experimental: The cumulative dose of oxliplatin was 36 mg/kg (Cavaletti G. et al. 2001, Eur. J. Cancer 37:2457-2463).
as §1, §2
Maximum hyperalgesia was obtained after a two weeks period of treatment. […] Compound administration was performed in the same days of chemotherapeutic injection.

[3] = tested on: Vincristine-induced peripheral neuropathy; assay: Vincristine-induced peripheral neuropathy, paw pressure test; format: in vivo, rat; conditions: for anti-hyperalgesic effect on mechanical hyperalgesia after repeated treatment: 30 mg/kg i.p. daily during last five days of vincristine, 1 hr and 12 hr after last administration; for reversal of vincristine mechanical hyper-sensitivity (paw pressure threshold): 100 mg/kg p.o., 30 and 60 min after treatment, 4 days after last vincristine injection; for activity on vehicle treated animals (paw pressure): vehicle treated rats, p.o.
Experimental: Vincristine was administered i.v. (150 μg/kg), every two days until a cumulative dose of 750 μg/kg was reached. Paw mechanical iper-sensitivity was evaluated 4 days after the last vincristine injection (Marchand F. et al. 2003, Brain Res. 980:117-120).
as §1, §2

CIPN [4] = conditions: cancer patients with CIPN; cited from earlier work
CIPN [5] = conditions: phase III, 10 weeks of therapy; cited from earlier work
[6] = tested on: cisplatin-induced pain syndrome; conditions: 51 patients, maximum dose 100 mg/day; cited from earlier work
[7] = tested on: HT29 human colon carcinoma cell line; assay: In vitro cytotoxicity and combination studies, ATPlite; conditions: for IC50: read-out: cytotoxic effect IC50
Experimental: In order to verify if the use of NiK-13317 for the treatment of CIPN would not affect the efficacy of anticancer treatments, the effect of NiK-13317 on cytotoxicity of known anticancer drugs was examined in vitro using HT29 human colon carcinoma cell line.
After 72 hours, cells were lysed and cell metabolic activity was quantified with ATPlite kit (Perkin Elmer Life Science) following manufacturer's recommendations. The ATP present in all metabolically active cells catalyses a reaction of transformation of D-luciferin by Luciferase, producing a luminescent signal measured using VICTOR^3™ Multi Label Reader (Perkin Elmer). Results were expressed as percentage of luminescence produced (i.e. ATP produced) compared to the control. Complete concentration-response curves with anticancer drugs were constructed in order to identify the concentrations producing a submaximal and a maximal cytotoxic effect, to be utilized for combination experiments.

Cc1ccc(N2C(=O)CN3C(=O)CCC32)cc1 (racemic) [NiK-13317, racemic 1-(4-Methylphenyl)dihydro-1H-pyrrolo[1,2-a]imidazole-2,5(3H,6H)-dione]
anti-hyperalgesic activity, i.v. [1]: active | anti-hyperalgesic activity, i.p. [1]: active | rat paw pressure threshold, anti-hyperalgesic effect [1]: significantly increased | prevention of oxaliplatin-induced decrease of mechanical threshold [2]: completely prevented | anti-hyperalgesic activity, pharmacodynamic experiment, 8 hr ([2]; after 3 weeks of oxaliplatin, 100 mg/kg p.o., 8 hr after treatment): still active | anti-hyperalgesic activity, pharmacodynamic experiment, 30 min and 4 hr ([2]; after 3 weeks of oxaliplatin, given orally, 30 min and 4 hr after administration): active | effects on vehicle treated animals (paw pressure) ([2]; p.o.): Neither NiK-13317 or gabapentin induced significant effects | anti-hyperalgesic effect on mechanical hyperalgesia after repeated treatment [3]: statistically significant (p<0.01) anti-hyperalgesic effect | development of tolerance after repeated treatment ([3]; 30 mg/kg i.p. daily, 5 days): without development of tolerance | anti-hyperalgesic effect 23 hr after the 4th administration ([3]; 30 mg/kg i.p. daily, 23 hr after 4th administration (1 hr before last injection)): statistically significant effect (p<0.05) | reversal of vincristine mechanical hyper-sensitivity (paw pressure threshold) [3]: pronounced significant reversal | activity on vehicle treated animals (paw pressure) [3]: devoid of any significant activity

Cc1ccc(N2C(=O)CN3C(=O)CCC32)cc1 (single isomer, unassigned) [compound of formula (I), 1-(4-Methylphenyl)dihydro-1H-pyrrolo[1,2-a]imidazole-2,5(3H,6H)-dione]
development of tolerance (general statement) ([3]; rat, in vivo): not to develop tolerance

NCC1(CC(=O)O)CCCCC1 [gabapentin]
anti-hyperalgesic activity, i.v. [1]: lacked of any significant effect | anti-hyperalgesic activity, i.p. [1]: lacked of any significant effect | rat paw pressure threshold, anti-hyperalgesic effect [1]: not able to induce any anti-hyperalgesic effect | adverse side effects such as nystagmus and dizziness (CIPN [4]): significant more adverse side effects | reduction of pain intensity (NRS score), sensory neuropathy (ECOG rating), and other adverse events (CIPN [4]): failed to reduce | prevention of oxaliplatin-induced decrease of mechanical threshold [2]: only a moderated anti-hyperalgesic effect | anti-hyperalgesic activity, pharmacodynamic experiment, 30 min ([2]; after 3 weeks of oxaliplatin, p.o., 30 min after treatment): only a moderate effect | effects on vehicle treated animals (paw pressure) ([2]; p.o.): Neither NiK-13317 or gabapentin induced significant effects | anti-hyperalgesic effect on mechanical hyperalgesia after repeated treatment [3]: no significant effects | reversal of vincristine mechanical hyper-sensitivity (paw pressure threshold) [3]: lacked of any significant effects | activity on vehicle treated animals (paw pressure) [3]: devoid of any significant activity

Nc1nnc(-c2cccc(Cl)c2Cl)c(N)n1 [lamotrigine]
reduction of CIPN (CIPN [5]): failed to reduce CIPN

CNCCC=C1c2ccccc2CCc2ccccc21 [nortriptyline]
efficacy over placebo on cisplatin-induced pain syndrome [6]: lack of nortriptyline efficacy over placebo

O=C1[O][Pt]2([NH][C@@H]3CCCC[C@H]3[NH]2)[O]C1=O [oxaliplatin]
IC50 ([7]; HT29 cells, 72 hours, ATPlite): 36000 nM | paw pressure threshold change caused by repeated oxaliplatin ([2]; oxaliplatin 2.4 mg/kg i.p., 5 consecutive days every week, evident from first week): decrease in paw pressure threshold

CC(=O)O[C@H]1C(=O)[C@@]2(C)[C@H]([C@H](OC(=O)c3ccccc3)[C@]3(O)C[C@H](OC(=O)[C@H](O)[C@@H](NC(=O)c4ccccc4)c4ccccc4)C(C)=C1C3(C)C)[C@]1(OC(C)=O)CO[C@@H]1C[C@@H]2O [taxol]
concentration of maximal cytotoxic effect ([7]; HT29 cells, 72 hours, ATPlite): 100 nM | IC50 ([7]; Homo sapiens, HT-29, 72 h): 8 nM | mechanical hyperalgesia produced by taxol treatment ([1]; taxol 0.5 mg/kg i.p. on days 1, 3, 5, 8): significant mechanical hyperalgesia

CC[C@]1(O)C[C@H]2CN(CCc3c([nH]c4ccccc34)[C@@](C(=O)OC)(c3cc4c(cc3OC)N(C=O)[C@H]3[C@@](O)(C(=O)OC)[C@H](OC(C)=O)[C@]5(CC)C=CCN6CC[C@]43[C@@H]65)C2)C1 [vincristine]
concentration of maximal cytotoxic effect ([7]; HT29 cells, 72 hours, ATPlite): 100 nM | IC50 ([7]; Homo sapiens, HT-29, 72 h): 7 nM | mechanical hyperalgesia produced by vincristine treatment (reduction of paw pressure threshold) ([3]; vincristine 150 μg/kg i.v. every two days, cumulative 750 μg/kg): marked and prolonged mechanical hyperalgesia
